Format in all cases: cell-based
Test [1] addresses T1, hGLP-1R (Homo sapiens, UniProt P43220). The test can be described thus: Functional cAMP activation in the presence of 0.1% casein (no HSA). As to conditions: read-out: Relative cAMP EC50, hGLP-1R.
The target of test [2] is T1, hGLP-1R. Briefly: Functional cAMP activity in the presence of 1% HSA. As to conditions: read-out: cAMP Rel EC50, hGLP-1R.
Test [3] has as its target T2, hGIPR (Homo sapiens, UniProt P48546).
T2 sequence (P48546 22-466): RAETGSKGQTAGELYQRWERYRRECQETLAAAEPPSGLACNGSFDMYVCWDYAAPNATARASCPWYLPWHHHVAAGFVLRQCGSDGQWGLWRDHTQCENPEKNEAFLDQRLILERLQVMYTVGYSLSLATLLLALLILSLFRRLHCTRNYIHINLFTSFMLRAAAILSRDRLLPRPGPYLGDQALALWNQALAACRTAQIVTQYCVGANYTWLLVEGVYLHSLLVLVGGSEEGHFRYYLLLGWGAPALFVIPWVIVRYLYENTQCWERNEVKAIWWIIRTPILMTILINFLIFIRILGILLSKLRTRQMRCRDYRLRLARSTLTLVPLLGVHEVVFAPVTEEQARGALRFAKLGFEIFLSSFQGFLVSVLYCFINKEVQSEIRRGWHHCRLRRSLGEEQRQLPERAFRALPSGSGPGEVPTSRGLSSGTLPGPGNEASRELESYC
The test can be described thus: Functional cAMP activity in the presence of 1% HSA. Particulars: read-out: cAMP Rel EC50, hGIPR.

The target of test [4] is human GcgR (Homo sapiens, UniProt P47871). The test can be described thus: Functional cAMP activity in the presence of 1% HSA. As to conditions: read-out: cAMP Rel EC50, hGcgR.
Test [5] concerns the target hGcgR (Homo sapiens, UniProt P47871). Briefly: Functional cAMP activation in the presence of 0.1% casein (no HSA). As to conditions: read-out: Relative cAMP EC50, hGcgR.
Test [6] concerns the target T2, hGIPR. Described as above. Particulars: read-out: Relative cAMP EC50, hGIPR.
[7] abbreviates: in the presence of 0.1% casein (no HSA), geometric mean.

We go through 15 molecules from patent US20240270821A1, “GIP/GLP1/GCG TRI-RECEPTOR AGONISTS AND USES THEREOF” (priority 2023, published 2024).

Where two headings read alike, the source gives them in different places. Starred links: 1 amine or outer side, 2 acyl side, 3 side chain; linkers in the order of their positions; H or OH if unused. Non-standard residues stand in square brackets, D forms with d. Residues, ends and D or L forms follow the SMILES beside them. Groups on a side chain read outwards from the residue. No end group written: not given here. *: point of attachment. C20 diacid = O=C(O)CCCCCCCCCCCCCCCCCCC(=O)*; C18 diacid = O=C(O)CCCCCCCCCCCCCCCCC(=O)*; αMePhe(2-F) = C[C@](N)(Cc1ccccc1F)C(=O)O; γGlu = O=C(O)[C@H](CCC(=O)[*:2])N[*:1]; αMe4Pal = C[C@](N)(Cc1ccncc1)C(=O)O; αMeY = C[C@](N)(Cc1ccc(O)cc1)C(=O)O; αMeF = C[C@](N)(Cc1ccccc1)C(=O)O; 4Pal = N[C@@H](Cc1ccncc1)C(=O)O; Aad = N[C@@H](CCCC(=O)O)C(=O)O; αMeL = CC(C)C[C@](C)(N)C(=O)O; αMeS = C[C@](N)(CO)C(=O)O; Orn = NCCC[C@H](N)C(=O)O; AEEA = NCCOCCOCC(=O)O; Aib = CC(C)(N)C(=O)O
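Wherever Relative cAMP EC50, hGIPR is given: intracellular cAMP rise after 30 min at 37 °C read by HTRF against a standard curve, scaled between buffer alone (0%) and top control ligand concentration (100%), four-parameter fit.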
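Wherever Relative cAMP EC50, hGLP-1R is given: intracellular cAMP rise after 30 min at 37 °C read by HTRF, normalized between buffer only (0%) and maximal control ligand (100%), four-parameter variable-slope fit.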
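Wherever Relative cAMP EC50, hGcgR is given: intracellular cAMP rise after 30 min at 37 °C, read by HTRF against a cAMP standard curve, scaled from buffer only (0%) to maximal control ligand response (100%).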

Sequence of human GcgR (P47871 26-477): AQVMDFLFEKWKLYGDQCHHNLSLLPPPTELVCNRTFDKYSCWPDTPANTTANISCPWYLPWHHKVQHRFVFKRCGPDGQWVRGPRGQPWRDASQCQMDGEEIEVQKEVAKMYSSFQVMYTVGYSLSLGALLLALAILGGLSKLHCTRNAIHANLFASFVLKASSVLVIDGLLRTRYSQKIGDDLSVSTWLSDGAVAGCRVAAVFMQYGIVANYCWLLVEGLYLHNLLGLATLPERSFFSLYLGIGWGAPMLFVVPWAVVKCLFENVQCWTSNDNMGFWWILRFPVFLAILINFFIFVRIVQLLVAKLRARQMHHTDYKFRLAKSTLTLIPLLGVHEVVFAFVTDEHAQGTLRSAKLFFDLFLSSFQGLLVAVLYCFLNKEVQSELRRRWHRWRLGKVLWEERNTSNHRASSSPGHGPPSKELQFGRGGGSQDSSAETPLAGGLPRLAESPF
Sequence of hGcgR (P47871 26-477): as above
T1 sequence (P43220 24-463): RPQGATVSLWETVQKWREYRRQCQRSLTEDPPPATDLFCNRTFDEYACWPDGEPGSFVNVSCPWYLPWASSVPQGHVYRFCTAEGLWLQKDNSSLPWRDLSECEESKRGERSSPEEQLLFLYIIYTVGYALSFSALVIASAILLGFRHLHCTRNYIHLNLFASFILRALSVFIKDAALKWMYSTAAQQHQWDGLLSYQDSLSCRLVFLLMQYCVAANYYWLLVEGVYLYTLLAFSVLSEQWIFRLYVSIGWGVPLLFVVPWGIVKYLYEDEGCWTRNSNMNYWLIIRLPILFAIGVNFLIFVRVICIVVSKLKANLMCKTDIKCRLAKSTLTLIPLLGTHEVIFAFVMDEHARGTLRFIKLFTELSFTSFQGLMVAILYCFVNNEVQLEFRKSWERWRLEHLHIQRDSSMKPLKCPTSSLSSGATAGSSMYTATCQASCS

Usually EC50 stands for the concentration at which the effect is half-maximal. Take “H-Y[Aib]QGTFTSD[4Pal]SK[αMeL]LDKK([AEEA-γGlu-C18 diacid])AQ[Aib]AFIEYLIEGGPSSGAPPPSGS-NH2 [Example 908]”: the EC50 in test [1] (setting [7]) amounted to 1.2 nM; in test [2], 174 nM; in test [3], 26.7 nM; in test [4], 980 nM; in test [5] (setting [7]) it was 8.11 nM; in test [6] (setting [7]) it was 0.246 nM.
For “H-Y[Aib]QGTFTSD[4Pal]SQ[αMeL]LD[Orn]K([AEEA-γGlu-C18 diacid])AQ[αMe4Pal]AFIE[αMeY]LIE[Aib]GPSSGAPPPSGSEE-NH2 [Example 1108]”, the EC50 in test [1] (setting [7]) worked out at 0.752 nM; in test [2], 76.2 nM; in test [3], 5.22 nM; in test [4] it was 468 nM; in test [5] (setting [7]), 4.96 nM; in test [6] (setting [7]), 0.0507 nM.
Consider “Y[Aib]QGT[αMeF]TSD[4Pal][αMeS]I[αMeL]LD[Orn]K([γGlu-γGlu-C18 diacid])AQ[αMe4Pal]EFI[dE][αMeY]LIEGGPSSGAPPPSGGGE-NH2 [Example 1174]”, for which the EC50 in test [1] (setting [7]) is 0.454 nM; in test [2], 60.2 nM; in test [3], 0.707 nM; in test [4] it was 347 nM; in test [5] (setting [7]), 2.58 nM; in test [6] (setting [7]) it was 0.00896 nM.
In the case of `CC[C@H](C)[C@H](NC(=O)[C@H](Cc1ccccc1)NC(=O)[C@H](C)NC(=O)[C@H](CCCNC(=N)N)NC(=O)[C@H](CCC(N)=O)NC(=O)[C@H](C)NC(=O)[C@H](CCCCNC(=O)COCCOCCNC(=O)CC[C@H](NC(=O)CCCCCCCCCCCCCCCCCCC(=O)O)C(=O)O)NC(=O)[C@H](CCCCN)NC(=O)[C@H](CC(=O)O)NC(=O)[C@H](CC(C)C)NC(=O)[C@](C)(CC(C)C)NC(=O)[C@@H](NC(=O)[C@H](CO)NC(=O)[C@H](Cc1ccc(O)cc1)NC(=O)[C@H](CC(=O)O)NC(=O)[C@H](CO)NC(=O)[C@@H](NC(=O)[C@H](Cc1ccccc1)NC(=O)[C@@H](NC(=O)CNC(=O)[C@H](CCC(N)=O)NC(=O)C(C)(C)NC(=O)[C@@H](N)Cc1ccc(O)cc1)[C@@H](C)O)[C@@H](C)O)[C@@H](C)CC)C(=O)N[C@@H](CCC(=O)O)C(=O)N[C@@H](Cc1ccc(O)cc1)C(=O)N[C@@H](CC(C)C)C(=O)N[C@@H](CC(C)C)C(=O)N[C@@H](CCC(=O)O)C(=O)NCC(=O)NCC(=O)N1CCC[C@H]1C(=O)N[C@@H](CO)C(=O)N[C@@H](CO)C(=O)NCC(=O)N[C@@H](CCC(=O)O)C(=O)N1CCC[C@H]1C(=O)N1CCC[C@H]1C(=O)N1CCC[C@H]1C(=O)N[C@@H](CO)C(=O)NCC(N)=O` [Example 313] (H-Y[Aib]QGTFTSDYSI[αMeL]LDKK([AEEA-γGlu-C20 diacid])AQRAFIEYLLEGGPSSGEPPPSG-NH2), the EC50 was 0.304 nM in test [1] (setting [7]); 135 nM in test [2]; 86.4 nM in test [3]; 3290 nM in test [4]; 4.11 nM in test [5] (setting [7]); 0.49 nM in test [6] (setting [7]).
As for “H-Y[Aib]QGT[αMePhe(2-F)]TSD[4Pal][αMeS]I[αMeL]LD[Orn]K([AEEA-γGlu-C18 diacid])AQ[αMe4Pal]EFI[dE][αMeY]LVEGGPSSGAPPPSGE-NH2 [Example 749]”, the EC50 amounted to 0.293 nM in test [1]; 33.9 nM in test [2]; 1.47 nM in test [3]; 28 nM in test [4]; 2.21 nM in test [5]; 0.00718 nM in test [6].
As for “H-Y[Aib]QGTFTSDYSI[αMeL]LDKIAAK([AEEA-AEEA-γGlu-C20 diacid])QFVEWLLA[Aib]GPSSGEPPPSEG-NH2 [Example 324]”, the EC50 in test [1] (setting [7]) was 4.4 nM; in test [2] it was 1060 nM; in test [3], 20.7 nM; in test [4] it was 1410 nM; in test [5] (setting [7]), 5.74 nM; in test [6] (setting [7]), 0.164 nM.
As to “H-Y[Aib]QGTFTSD[4Pal]SQ[αMeL]LDKK([AEEA-γGlu-C18 diacid])AQ[αMe4Pal]AFIE[αMe4Pal]LIEGGPSSGAPPPSGSEE-NH2 [Example 954]”, the concentration for a half-maximal effect (EC50) was 4.79 nM in test [1] (setting [7]); 357 nM in test [2]; 35.3 nM in test [3]; 450 nM in test [4]; 3.66 nM in test [5] (setting [7]); 0.268 nM in test [6] (setting [7]).
With `CC[C@H](C)[C@H](NC(=O)[C@H](Cc1ccccc1)NC(=O)[C@H](C)NC(=O)C(C)(C)NC(=O)[C@H](CCC(N)=O)NC(=O)[C@H](C)NC(=O)[C@H](CCCCNC(=O)COCCOCCNC(=O)CC[C@H](NC(=O)CCCCCCCCCCCCCCCCC(=O)O)C(=O)O)NC(=O)[C@H](CCCN)NC(=O)[C@H](CC(=O)O)NC(=O)[C@H](CC(C)C)NC(=O)[C@](C)(CC(C)C)NC(=O)[C@@H](NC(=O)[C@H](CO)NC(=O)[C@H](Cc1ccc(O)cc1)NC(=O)[C@H](CC(=O)O)NC(=O)[C@H](CO)NC(=O)[C@@H](NC(=O)[C@](C)(Cc1ccccc1)NC(=O)[C@@H](NC(=O)CNC(=O)[C@H](CCC(N)=O)NC(=O)C(C)(C)NC(=O)[C@@H](N)Cc1ccc(O)cc1)[C@@H](C)O)[C@@H](C)O)[C@@H](C)CC)C(=O)N[C@@H](CCC(=O)O)C(=O)N[C@@H](Cc1ccc(O)cc1)C(=O)N[C@@H](CC(C)C)C(=O)N[C@@H](CCC(=O)O)C(=O)N[C@@H](CCC(=O)O)C(=O)NCC(=O)NCC(=O)N1CCC[C@H]1C(=O)N[C@@H](CO)C(=O)N[C@@H](CO)C(=O)NCC(=O)N[C@@H](C)C(=O)N1CCC[C@H]1C(=O)N1CCC[C@H]1C(=O)N1CCC[C@H]1C(=O)N[C@@H](CCC(=O)O)C(N)=O` [Example 397] (H-Y[Aib]QGT[αMeF]TSDYSI[αMeL]LD[Orn]K([AEEA-γGlu-C18 diacid])AQ[Aib]AFIEYLEEGGPSSGAPPPE-NH2), the half-maximal effective concentration (EC50) in test [1] is 0.2 nM; in test [2], 34.9 nM; in test [3], 10.1 nM; in test [4], 1110 nM; in test [5] it was 5.22 nM; in test [6] it was 0.0247 nM.
Take “H-Y[Aib]QGTFTSDFS[Orn][αMeL]LDKK([AEEA-γGlu-C18 diacid])AQ[Aib]AFIEYLLEGGPSSGAPPPGGSG-NH2 [Example 64]”: the concentration for a half-maximal effect (EC50) in test [1] (setting [7]) was 4.08 nM; in test [2], 397 nM; in test [3] it was 24.9 nM; in test [4], 626 nM; in test [5] (setting [7]), 4.94 nM; in test [6] (setting [7]) it was 0.309 nM.
For “H-Y[Aib]QGT[αMePhe(2-F)]TSD[4Pal]SILLDKQAQK([AEEA-AEEA-γGlu-C20 diacid])AFIEYLLEGGPSSGEPPPSEG-NH2 [Example 347]”, the half-maximal effective concentration (EC50) was found to be 0.798 nM in test [1] (setting [7]); 254 nM in test [2]; 17.3 nM in test [3]; 3650 nM in test [4]; 8.88 nM in test [5] (setting [7]); 0.0634 nM in test [6] (setting [7]).
“H-Y[Aib]QGT[αMePhe(2-F)]TSD[4Pal][αMeS]I[αMeL]LD[Orn]K([γGlu-γGlu-C18 diacid])AQ[Aib][Orn]FI[dE]YLLEGGPSSGEPPPSGTE-NH2 [Example 532]”: the concentration giving a half-maximal response (EC50) was determined as 0.577 nM in test [1]; 47.3 nM in test [2]; 1.49 nM in test [3]; 157 nM in test [4]; 1.37 nM in test [5]; 0.0159 nM in test [6].
“H-Y[Aib]QGTFTSD[4Pal]SQ[αMeL]LDKK([γGlu-γGlu-C18 diacid])AQ[αMe4Pal]AFIE[αMe4Pal]LIE[Aib]GPSSGEPPPSGEEE-NH2 [Example 1124]”: the concentration giving a half-maximal response (EC50) in test [1] (setting [7]) was determined as 10.1 nM; in test [2], 304 nM; in test [3], 12 nM; in test [4], 400 nM; in test [5] (setting [7]), 6.97 nM; in test [6] (setting [7]), 0.187 nM.
With “H-Y[Aib]QGT[αMePhe(2-F)]TSD[4Pal]SILLDKK([AEEA-γGlu-C18 diacid])AQ[Aib]AFIEYL[Aad]EGGPSSGAPPPSGTGE-NH2 [Example 663]”, the EC50 in test [1] amounted to 1.29 nM; in test [2], 79 nM; in test [3], 10.2 nM; in test [4], 226 nM; in test [5] it was 1.95 nM; in test [6] it was 0.0893 nM.
For “H-Y[Aib]QGTFTSDFS[Orn][αMeL]LDKK([AEEA-γGlu-C18 diacid])AQ[Aib]AFIE[4Pal]LLEGGPSSGAPPPGGS-NH2 [Example 496]”, the 50% effective concentration (EC50) in test [1] was 9.69 nM; in test [2], 1480 nM; in test [3], 60.8 nM; in test [4] it was 1500 nM; in test [5], 8.25 nM; in test [6], 0.387 nM.
With “Y[Aib]QGTFTSD[4Pal]SQ[αMeL]LD[Orn]K([dE-γGlu-C18 diacid])AQ[αMe4Pal]AFIQ[αMeY]LLEGGPSSGAPPPSGSEEE-NH2 [Example 1083]”, the EC50 amounted to 7.76 nM in test [1] (setting [7]); 547 nM in test [2]; 20.5 nM in test [3]; 1030 nM in test [4]; 15 nM in test [5] (setting [7]); 0.328 nM in test [6] (setting [7]).
